Laboratory results as given in ChEMBL document CHEMBL1201862, “PubChem BioAssay data set” (2004).
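Each compound was tested at five concentrations against cells in 96-well plates for 48 hours. GI50: concentration for 50% inhibition of growth.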 Active and inactive are the calls of the source. No stated cut-off is given here; in the data, active = GI50 up to about 1.1 µM and inactive = higher.

Tests used:
Experiment in all cases: NCI-60 cell line screen, 48 h
NCI-H226 = system: NCI-H226
NCI-H460 = system: NCI-H460
CCRF-CEM = system: CCRF-CEM
SN12C = system: SN12C
HT-29 = system: HT-29
NCI-H522 = system: NCI-H522
UACC-62 = system: UACC-62
DMS-114 = system: DMS-114
SNB-78 = system: SNB-78
KM12 = system: KM12
SF-268 = system: SF-268
KM-20L2 = system: KM-20L2
SK-OV-3 = system: SK-OV-3
COLO 205 = system: COLO 205
OVCAR-5 = system: OVCAR-5
IGROV-1 = system: IGROV-1

Measured: GI50

O=C1c2ccccc2C(=O)c2[nH]cnc21
inactive: NCI-H226 29.8 µM | NCI-H460 32.1 µM | CCRF-CEM 49.9 µM | SN12C 95.7 µM | HT-29 33.5 µM | NCI-H522 34 µM | UACC-62 31.9 µM | DMS-114 31.5 µM | SNB-78 41.3 µM | KM12 53.8 µM | SF-268 93.1 µM

COC(=O)C(=O)C(C(=O)C(=O)Nc1ccc([N+](=O)[O-])cc1C#N)c1nc2ccc([N+](=O)[O-])cc2nc1O (centres undefined)
inactive: KM-20L2 > 100 µM | NCI-H226 57.5 µM | NCI-H460 > 100 µM | CCRF-CEM > 100 µM | SK-OV-3 > 100 µM | SN12C > 100 µM | COLO 205 > 100 µM | HT-29 > 100 µM | NCI-H522 > 100 µM | UACC-62 > 100 µM | OVCAR-5 > 100 µM | DMS-114 > 100 µM | SNB-78 > 100 µM | KM12 > 100 µM | SF-268 > 100 µM

CC1=C(C(=O)CC(=O)C(=O)Nc2ccccc2C(F)(F)F)Sc2ccccc2N1
inactive: KM-20L2 > 100 µM | NCI-H226 15.6 µM | NCI-H460 57.1 µM | CCRF-CEM 49.7 µM | SK-OV-3 > 100 µM | SN12C 56.4 µM | COLO 205 > 100 µM | IGROV-1 44 µM | HT-29 > 100 µM | NCI-H522 24.5 µM | UACC-62 38.5 µM | OVCAR-5 > 100 µM | DMS-114 32.6 µM | SNB-78 47.3 µM | KM12 39.1 µM | SF-268 15.7 µM

CCOC(=O)C1Cc2[nH]c3ccccc3c2C(C)C1C (centres undefined)
inactive: KM-20L2 16.8 µM | NCI-H226 11.6 µM | NCI-H460 17.3 µM | CCRF-CEM 19.7 µM | SK-OV-3 18.9 µM | SN12C 18.4 µM | COLO 205 17.3 µM | IGROV-1 15.3 µM | NCI-H522 12.2 µM | UACC-62 10.8 µM | OVCAR-5 17 µM | DMS-114 22.3 µM | SNB-78 19.4 µM | KM12 17 µM | SF-268 19.5 µM

CC(=O)OC1c2ccccc2CCCCCCC12OCCO2 (centres undefined)
inactive: KM-20L2 > 100 µM | NCI-H226 > 100 µM | NCI-H460 > 100 µM | CCRF-CEM > 100 µM | SK-OV-3 > 100 µM | SN12C > 100 µM | COLO 205 > 100 µM | IGROV-1 > 100 µM | HT-29 > 100 µM | NCI-H522 50.9 µM | UACC-62 > 100 µM | OVCAR-5 > 100 µM | DMS-114 61.5 µM | SNB-78 > 100 µM | KM12 > 100 µM | SF-268 > 100 µM

O=C(CC1(O)C(=O)Nc2c(Cl)cc(Cl)cc21)c1cccc2ccccc12 (centres undefined)
inactive: KM-20L2 18.9 µM | NCI-H226 16.5 µM | NCI-H460 16.6 µM | CCRF-CEM 17.8 µM | SK-OV-3 16.6 µM | SN12C 18.4 µM | COLO 205 17 µM | IGROV-1 18.6 µM | HT-29 19.6 µM | NCI-H522 14.3 µM | UACC-62 14.9 µM | OVCAR-5 22.4 µM | DMS-114 17.9 µM | SNB-78 26.7 µM | KM12 16 µM | SF-268 21.4 µM

CC(=O)OCCOCNC(=S)N/N=C/c1ccc(Br)s1
inactive: KM-20L2 > 100 µM | NCI-H226 > 100 µM | NCI-H460 78.3 µM | CCRF-CEM 3.74 µM | SK-OV-3 > 100 µM | SN12C > 100 µM | COLO 205 > 100 µM | IGROV-1 > 100 µM | HT-29 > 100 µM | NCI-H522 8.17 µM | UACC-62 > 100 µM | OVCAR-5 > 100 µM | DMS-114 33.3 µM | SNB-78 > 100 µM | KM12 > 100 µM | SF-268 > 100 µM

COc1ccc(/N=C(/[N-]n2c(=O)c(C)nn(C)c2=S)N(c2ccc(OC)cc2)c2n[n+]3c(=O)c(C)nn(C)c3s2)cc1
inactive: KM-20L2 > 100 µM | NCI-H226 > 100 µM | NCI-H460 > 100 µM | CCRF-CEM > 100 µM | SN12C > 100 µM | COLO 205 > 100 µM | IGROV-1 > 100 µM | HT-29 > 100 µM | NCI-H522 > 100 µM | UACC-62 > 100 µM | OVCAR-5 > 100 µM | DMS-114 > 100 µM | SNB-78 > 100 µM | KM12 > 100 µM | SF-268 > 100 µM

CS(=O)(=O)N(CCC#N)c1ccc(/C=N/NC(=O)CC(=O)Nc2cccc(Cl)c2)cc1
inactive: KM-20L2 > 100 µM | NCI-H226 > 100 µM | NCI-H460 > 100 µM | CCRF-CEM > 100 µM | SK-OV-3 > 100 µM | SN12C > 100 µM | COLO 205 > 100 µM | IGROV-1 > 100 µM | HT-29 > 100 µM | NCI-H522 > 100 µM | UACC-62 > 100 µM | OVCAR-5 > 100 µM | DMS-114 > 100 µM | SNB-78 > 100 µM | KM12 > 100 µM | SF-268 > 100 µM

CCOC(OC(C)=O)[C@@H]1C=C[C@H](C)N(c2ccc([N+](=O)[O-])cc2)O1 (some centres undefined)
inactive: KM-20L2 8.55 µM | NCI-H226 5.57 µM | NCI-H460 10.6 µM | CCRF-CEM 2.29 µM | SK-OV-3 17.8 µM | SN12C 3.4 µM | COLO 205 11.9 µM | IGROV-1 7.98 µM | HT-29 3.17 µM | NCI-H522 3.16 µM | UACC-62 2.54 µM | OVCAR-5 2.76 µM | DMS-114 4.69 µM | SNB-78 7.48 µM | KM12 2.5 µM | SF-268 3.13 µM

Nc1ccccc1C(=O)/C=C/c1ccccc1O
inactive: KM-20L2 > 100 µM | NCI-H226 > 100 µM | NCI-H460 67.1 µM | CCRF-CEM 33.9 µM | SK-OV-3 > 100 µM | SN12C 55.2 µM | COLO 205 > 100 µM | IGROV-1 > 100 µM | HT-29 > 100 µM | NCI-H522 34.5 µM | UACC-62 57.1 µM | OVCAR-5 > 100 µM | DMS-114 29.8 µM | SNB-78 41.5 µM | KM12 31 µM | SF-268 56.5 µM

Cc1nc2c(o1)/C(=N\c1ccccc1)c1nc(C)oc1/C2=N/c1ccccc1
inactive: KM-20L2 25.5 µM | NCI-H226 21.4 µM | NCI-H460 29.3 µM | CCRF-CEM 61.1 µM | SK-OV-3 20.2 µM | SN12C 17.5 µM | COLO 205 33.1 µM | IGROV-1 4.73 µM | HT-29 20.4 µM | NCI-H522 21.7 µM | UACC-62 18.8 µM | OVCAR-5 34 µM | DMS-114 25.5 µM | SNB-78 > 100 µM | SF-268 23.7 µM

CCCCCCCCCCCCCCCCOP(=O)(O)Oc1ccc(/C=C\c2ccc(OP(=O)(O)OCCCCCCCCCCCCCCCC)cc2)cc1
inactive: KM-20L2 67.3 µM | NCI-H226 42.7 µM | NCI-H460 56.4 µM | CCRF-CEM 29 µM | SK-OV-3 > 100 µM | SN12C > 100 µM | COLO 205 17.5 µM | IGROV-1 30.8 µM | HT-29 62.7 µM | NCI-H522 29.6 µM | UACC-62 > 100 µM | OVCAR-5 > 100 µM | DMS-114 10.1 µM | SNB-78 20.1 µM | KM12 56.2 µM | SF-268 34.9 µM
